In assay [1] the target is Protein cereblon/Son of sevenless homolog 1 (Homo sapiens, UniProt Q07889+Q96SW2, G12D). Briefly: PROTAC activity at CRBN/SOS1 in human HPAF-II cells harboring KRAS G12D mutant assessed as protein degradation by immunoblot analysis. Type of assay: cell-based. (A western blot detects proteins with antibodies after separation by electrophoresis.)
For assay [2], the target named is T1, Protein cereblon/Son of sevenless homolog 1 (Homo sapiens, UniProt Q07889+Q96SW2). Briefly: PROTAC activity at CRBN/SOS1 in human A549 cells assessed as half life of SOS1 at 3 uM by immunoblot analysis. Format: cell-based.
The target in assay [3] is T1, Protein cereblon/Son of sevenless homolog 1. The experiment in a line: PROTAC activity at CRBN/SOS1 in MG-132-pretreated human A549 cells assessed as protein degradation at 1 uM incubated for 24 hrs by immunoblot analysis. Format: cell-based.
Assay [4] has the same target. Briefly: PROTAC activity at CRBN/SOS1 in CHX-pretreated human A549 cells assessed as protein degradation at 3 uM incubated for 12 hrs by immunoblot analysis. Type of assay: cell-based.
For another assay, the system named is MIA PaCa-2. Briefly: Inhibition of colony formation in human MIA PaCa-2 cells upto 30 uM incubated for 14 days by crystal violet staining based analysis. Type of assay: functional, cell-based. The following applies: time 14.0 day.
The target of assay [5] is T1, Protein cereblon/Son of sevenless homolog 1. Briefly: PROTAC activity at CRBN/SOS1 in lenalidomide-pretreated human A549 cells assessed as protein degradation at 1 uM incubated for 24 hrs by immunoblot analysis. Type of assay: cell-based.
The target is the same in assay [6]. The experiment in a line: PROTAC activity at CRBN/SOS1 in human A549 cells assessed as protein degradation incubated for 24 hrs by immunoblot analysis. Type of assay: cell-based.
Assay [7] shares this target. The experiment in a line: PROTAC activity at CRBN/SOS1 in MLN-4924-pretreated human A549 cells assessed as protein degradation at 1 uM incubated for 24 hrs by immunoblot analysis. Type of assay: cell-based.
The target of assay [8] is Protein cereblon/Son of sevenless homolog 1 (Homo sapiens, UniProt Q07889+Q96SW2, G12C). Briefly: PROTAC activity at CRBN/SOS1 in human MIA PaCa-2 cells harboring KRAS G12C mutant assessed as protein degradation by immunoblot analysis. Type of assay: cell-based.
Assay [9] deals with A549. The experiment in a line: Effect on SOS2 in human A549 cells upto 10000 nM incubated for 24 hrs by immunoblot analysis. Type of assay: functional, cell-based.
Assay [10] has as its target GTPase KRas (Homo sapiens) (UniProt P01116). Briefly: Inhibition of KRAS signalling in serum-starved human A549 cells assessed as decrease in ERK1/2 phosphorylation upto 10000 nM preincubated for 24 hrs followed by EGF stimulation for 1 hr by immunoblot analysis. Type of assay: cell-based. The following applies: time 25.0 hrs.
Assay [11] deals with T1, Protein cereblon/Son of sevenless homolog 1. Briefly: PROTAC activity at CRBN/SOS1 in human A549 cells assessed as protein degradation upto 10000 nM incubated for 24 hrs by immunoblot analysis relative to control. Type of assay: cell-based.
Assay [12] shares this target. The experiment in a line: PROTAC activity at CRBN/SOS1 in human A549 cells assessed as protein degradation at 0.1 uM incubated for 24 hrs by immunoblot analysis relative to control. Type of assay: cell-based.
For assay [13] the target is unchanged. Briefly: PROTAC activity at CRBN/SOS1 in bafilomycin-pretreated human A549 cells assessed as protein degradation at 1 uM incubated for 24 hrs by immunoblot analysis. Type of assay: cell-based.
Assay [14] concerns A549. Briefly: Effect on GSPT1 in human A549 cells upto 10000 nM incubated for 24 hrs by immunoblot analysis. Type of assay: functional, cell-based.
The target in assay [15] is T1, Protein cereblon/Son of sevenless homolog 1. The experiment in a line: PROTAC activity at CRBN/SOS1 in BI3406-pretreated human A549 cells assessed as protein degradation at 1 uM incubated for 24 hrs by immunoblot analysis. Format: cell-based.
For assay [16] the target is unchanged. Briefly: PROTAC activity at CRBN/SOS1 in human A549 cells assessed as protein degradation at 3 uM by immunoblot analysis. Type of assay: cell-based. Conditions: time <= 72.0 hrs, TDE = time-dependent effect.
Assay [17] shares this target. The experiment in a line: PROTAC activity at 6His-tagged human CRBN TBD domain (318 to 425 residues) expressed in Escherichia coli BL21(DE3)/GST-tagged recombinant human SOS1 (569 to 1049 residues) expressed in Escherichia coli BL21(DE3) protein-protein interaction assessed as ternary complex formation incubated for 1 hr by AlphaScreen assay. (Bead proximity is the source of the signal in Alpha formats.)

Assay [18] shares this target. Briefly: PROTAC activity at CRBN/SOS1 in human A549 cells assessed as protein degradation at 10 uM incubated for 24 hrs by immunoblot analysis relative to control. Type of assay: cell-based.
Assay [19] shares this target. The experiment in a line: PROTAC activity at CRBN/SOS1 in human A549 cells assessed as protein degradation at 3 uM incubated for 24 to 72 hrs by immunoblot analysis. Type of assay: cell-based. The following applies: time 24-72 hrs.

Structures are written as SMILES. Activity calls are given as the source filed them. The calls are words filed in the database; no cut-off is given here.

The term DC50 denotes the concentration giving 50% degradation. By Emax is commonly meant the greatest response seen or fitted, relative to the assay's reference. In the case of `COc1cc2nc(C)nc(N[C@H](C)c3cc(N)cc(C(F)(F)F)c3)c2cc1O[C@H]1CCN(C(=O)CCCCCCCC(=O)Nc2cccc3c2CN(C2CCC(=O)NC2=O)C3=O)C1` (stereo partly specified), the 50% degradation concentration (DC50) in assay [1] turned out to be 354 nM; in assay [6], 209 nM; in assay [8] it was 540 nM. For the same compound, the T1/2 in assay [2] is 22.5 h. Besides, the result (in assay [3]; in assay [5]; in assay [7]; with A549 [9]; in the assay with A549 [14]; in [15]) was inactive. The outcome in assay [4], in assay [13], in [17] and in assay [19] was Active. Moreover, the inhibition result (in the assay on MIA PaCa-2; in assay [10]) was “Active” each time. In addition, the Activity entry in assay [6] (dose <= 10000.0 µM) is “Dose-Dependent Effect”; in assay [12], 68%; in assay [16], “Tde”; in assay [18], 69%. Also, the maximal effect (Emax) in [11] is > 80%.

Values taken from ChEMBL document CHEMBL5550100, “Discovery of LHF418 as a new potent SOS1 PROTAC degrader” (Bioorg Med Chem, 2024).
